# Values of other authors, collected in patent EP2179733A1, “PHARMACEUTICAL COMPOSITION COMBINING AN ANTIMICROBIAL AGENT AND A SELECTIVE ENKEPHALINASE ENZYME INHIBITOR, WHICH CAN BE USED TO CONTROL AND TREAT ACUTE BACTERIAL DIARRHOEA” (World Trade Import-Export, WTIE A.G., priority 2007, dated 2009).
# Assays:
# plasmatic enkephalinase = biological target: T1, plasmatic enkephalinase (Homo sapiens, UniProt P08473)
# T1 construct: from tissue; host or cells: plasma after oral administration of Racecadotril
# T1 sequence (P08473 whole entry): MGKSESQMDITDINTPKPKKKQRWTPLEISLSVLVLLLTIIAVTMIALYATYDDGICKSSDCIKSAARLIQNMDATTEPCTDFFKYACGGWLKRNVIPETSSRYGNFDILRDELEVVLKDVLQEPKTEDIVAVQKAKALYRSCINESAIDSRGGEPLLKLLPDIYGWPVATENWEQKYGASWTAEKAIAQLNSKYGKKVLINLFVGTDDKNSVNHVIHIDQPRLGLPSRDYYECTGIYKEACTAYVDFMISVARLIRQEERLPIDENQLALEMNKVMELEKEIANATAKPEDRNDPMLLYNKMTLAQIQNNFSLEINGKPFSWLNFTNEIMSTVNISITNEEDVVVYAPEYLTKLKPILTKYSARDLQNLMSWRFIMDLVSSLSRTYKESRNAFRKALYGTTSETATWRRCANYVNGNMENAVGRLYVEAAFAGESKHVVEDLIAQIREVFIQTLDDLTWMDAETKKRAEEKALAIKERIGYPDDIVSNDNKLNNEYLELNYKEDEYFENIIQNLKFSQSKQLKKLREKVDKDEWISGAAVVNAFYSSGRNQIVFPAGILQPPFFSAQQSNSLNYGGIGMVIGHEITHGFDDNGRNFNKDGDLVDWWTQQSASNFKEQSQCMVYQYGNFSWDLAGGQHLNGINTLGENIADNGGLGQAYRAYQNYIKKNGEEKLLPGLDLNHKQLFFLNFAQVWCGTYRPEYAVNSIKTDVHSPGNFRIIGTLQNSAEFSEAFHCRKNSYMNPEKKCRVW
smiles,measurement,setting,value
CC(=O)SCC(Cc1ccccc1)C(=O)NCC(=O)OCc1ccccc1 (stereo not drawn) [Racecadotril],duration of inhibiting effect over plasmatic enkephalinase,plasmatic enkephalinase; 1.5 mg/kg oral doses,about 8 hours
same,maximum enzymatic inhibition level,plasmatic enkephalinase; 1.5 mg/kg oral doses,about 90%
same,start of plasmatic enkephalinase inhibiting effect after administration,plasmatic enkephalinase; oral administration,30 min
same,time to maximum activity,plasmatic enkephalinase; oral administration,2 h
same,delay of maximum activity when administered with food,plasmatic enkephalinase; with food,about one and half
same,administered dose distributed in tissues,in vivo,1%
same,mean life,in vivo,about 3 hours
same,time to maximum concentration from administration,oral administration,60 min
same,bioavailability when administered with food,with food,not modified
